According to ChEMBL document CHEMBL2331287, “Inhibition of mTOR Kinase and Cancer Treatment” (ACS Med Chem Lett, 2013):
pIC50: −log10 of the molar value.

Tests used:
[1] = molecular target: mTORC1 (Homo sapiens, UniProt P42345); assay: Inhibition of mTORC1 in human PC3 cells assessed as reduction in phosphorylated 4E-BP1Thr37/46 level after 90 mins by immunofluorescence assay; type: cell-based, PC-3
[2] = Inhibition of mTORC2 in human PC3 cells assessed as reduction in phosphorylated AKT S473 level after 90 mins by immunofluorescence assay; type: cell-based; conditions: PC-3, 1.5 h

Compound	pIC50 [1]	pIC50 [2]
Cc1n[nH]c2c1c([C@@H]1C[C@H]3CC[C@@H](C1)N3C(=O)c1nnc[nH]1)nc1c(-c3ccc(-c4ccccc4)nc3)cnn12	7.00	9.00
O=C(c1nnc[nH]1)N1[C@@H]2CC[C@H]1C[C@H](c1nc3c(-c4ccc(-c5ncc[nH]5)nc4)cnn3c3[nH]ccc13)C2	9.00	9.00
